For 59 compounds, AC50 and activity change, negative = cytotoxicity results are on record in PubChem BioAssay AID720585 (Broad Institute, 2013).

Active and inactive are the calls of the source.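 Rule for the calls: active = fitted curve falling to -50% or lower, with AC50 no more than twice the sample's top valid dose; inactive = the rest, including changes in the wrong direction.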

In the first experiment the test system is A549 viability, CellTiter-Glo ATP luminescence, 72 h. Briefly: A549 lung cell cytotoxicity, dose response, cytotoxicity control, CellTiter-Glo luminescence, dry powder samples (AID 720585).
Details: not given
With `Cc1ccccc1/C=C(\CCC(=O)O)c1nc2ccccc2s1`, the AC50 is > 26 µM (inactive).
The same measure, in the same setting: as for `O=C(Nc1ccc(Cl)c(-c2nc3ccccc3[nH]2)c1)c1cccnc1`, the figure is > 26 µM (inactive).
On the same count and under the same terms, the value for `CCc1ccc(N2CCN(C(=O)c3ccc4c(c3)OCO4)CC2)cc1` was > 26 µM (inactive).
Consider `Cc1cc(C)n2nc(C(=O)Nc3cccnc3)nc2n1`, for which the AC50 is > 26 µM (inactive).
As to `CC(=O)c1ccc(N2CCN(C(=O)c3ccccc3)CC2)cc1`, the AC50 was > 26 µM (inactive).

Test system in a further experiment: not listed separately
The description is as above. Conditions: A549 viability, CellTiter-Glo ATP luminescence, 72 h; at 26 µM (top of the series).
`O=C(Nc1ccncc1)c1cc2nc(C3CC3)cc(C(F)F)n2n1`: the activity change, negative = cytotoxicity is 2.81% (inactive).
Regarding `CC(=O)c1ccc(N2CCN(C(=O)c3cccc(F)c3)CC2)cc1`, the activity change, negative = cytotoxicity is -1.71% (inactive).
On to `O=C(Nc1ccc(Cl)cc1)c1cc2nc(C3CC3)cc(C(F)(F)F)n2n1`, for which the activity change, negative = cytotoxicity was 12.6% (inactive).
Still for that read-out and setting: as for `Cc1cc(C)n2nc(C(=O)Nc3cccnc3)cc2n1`, the figure is 0.879% (inactive).
Still for that read-out and setting: as for `CCOC(=O)N1CCN(C(=O)Nc2ccc3snnc3c2)CC1`, the figure is -11% (inactive); as for `CC(=O)c1ccc(N2CCN(C(=O)c3ccc(Br)cc3)CC2)c(F)c1`, -2.87% (inactive).
Still for that read-out and setting: as for `Cc1ccc(/C=C(\CC(=O)O)c2nc3ccccc3s2)cc1[N+](=O)[O-]`, the figure is 7.43% (inactive).
In the case of `O=C(Nc1cccnc1)c1cnn2c(C(F)F)cc(C3CC3)nc12`, the activity change, negative = cytotoxicity is -2.75% (inactive).
With `O=C(Nc1cccc(Cl)c1)N1CCN(c2ccccc2)CC1`, the activity change, negative = cytotoxicity was -1.38% (inactive).
The same measure, in the same setting: as for `CCc1ccc(C(=O)N2CCN(Cc3ccc4c(c3)OCO4)CC2)cc1`, the figure is -0.901% (inactive); as for `CCN(CC)c1ccc2cc(C(=O)c3cccs3)c(=O)oc2c1`, 7.58% (inactive).
Still for that read-out and setting: as for `O=C(c1ccc2c(c1)OCO2)N1CCN(c2ccc(F)cc2)CC1`, the figure is -0.413% (inactive); as for `CC(=O)c1ccc(N2CCN(C(=O)c3ccc4c(c3)OCCO4)CC2)cc1`, -10.1% (inactive).
The same measure, in the same setting: the value for `Cc1ccc(/C=C(\CCC(=O)O)c2nc3ccccc3s2)cc1` was -2.14% (inactive); that for `O=C(c1ccc2c(c1)OCO2)N1CCN(c2ccccc2)CC1` was -3.52% (inactive); that for `O=C(Nc1cccc(F)c1)N1CCN(c2ccccc2)CC1` was 5.56% (inactive).
For `COc1cccc(NC(=O)CCC2CCN(C(=O)c3ccc(C(C)=O)s3)CC2)c1`, the activity change, negative = cytotoxicity was -3.35% (inactive).
With `Cc1ccc(/C=C(\CCC(=O)O)c2nc3ccccc3s2)cc1[N+](=O)[O-]`, the activity change, negative = cytotoxicity was -3.79% (inactive).
On the same count and under the same terms, as for `COc1cccc(C(=O)N2CCN(c3ccc(C(C)=O)cc3)CC2)c1`, the figure is -3.71% (inactive); as for `O=C(COc1ccc2ccc(=O)oc2c1)N1CCN(c2ccc(F)cc2)CC1`, -15.6% (inactive).
Regarding `CC(=O)c1ccc(N2CCN(C(=O)c3ccc(Cl)cc3)CC2)cc1`, the activity change, negative = cytotoxicity was 3.76% (inactive).
`COC(=O)c1c(C(=O)OC)c(-c2cccc(F)c2)n2c1CS(=O)C2` (centres undefined): the activity change, negative = cytotoxicity was 2.89% (inactive).
On the same count and under the same terms, the value for `COc1ccc(-c2cc(C(F)(F)F)n3nc(C(=O)Nc4cccnc4)cc3n2)cc1` was 5.08% (inactive).
Turning to `CC(=O)c1ccc(N2CCN(C(=O)c3ccc(F)cc3)CC2)cc1`, the activity change, negative = cytotoxicity is -0.22% (inactive).
With `COc1cc(/C=C/C(=O)Nc2cccnc2)cc(OC)c1OC`, the activity change, negative = cytotoxicity was 11.1% (inactive).
On the same count and under the same terms, the value for `O=C(Nc1ccc2snnc2c1)N1CCOCC1` was 9.86% (inactive); that for `COc1ccc(C(=O)N2CCN(c3ccc(C(C)=O)cc3)CC2)cc1` was 13.7% (inactive); that for `CC(C)(C)c1ccc(C(=O)N2CCN(c3ccc4c(c3)OCO4)CC2)cc1` was -3.25% (inactive).
`Cc1ccc(-c2cc(C(F)(F)F)n3nc(C(=O)Nc4cccnc4)cc3n2)cc1`: the activity change, negative = cytotoxicity was -7.78% (inactive).
The same measure, in the same setting: the value for `O=C(O)CC/C(=C\c1ccccc1[N+](=O)[O-])c1nc2ccccc2s1` was -7.05% (inactive); that for `CC(=O)c1ccc(N2CCN(C(=O)c3ccc4ncsc4c3)CC2)cc1` was 2.15% (inactive); that for `O=C(Nc1ccc2[nH]ccc2c1)N1CCN(c2ccccc2)CC1` was -0.377% (inactive).
`O=C(c1ccc2c(c1)OCO2)N1CCN(c2ccc(Cl)cc2)CC1`: the activity change, negative = cytotoxicity was -6.96% (inactive).
The same measure, in the same setting: the value for `O=C(Nc1cccnc1)N1CCN(c2ccccc2)CC1` was -2.28% (inactive); that for `Cc1ccc(NC(=O)N2CCN(c3ccccc3)CC2)cc1` was -5.15% (inactive).
Same read-out and setting: as for `O=C(Nc1ccc2snnc2c1)N1CCCCC1`, the figure is -9.31% (inactive); as for `O=C(O)CC/C(=C\c1ccc([N+](=O)[O-])cc1)c1nc2ccccc2s1`, 5.24% (inactive).
As to `Cc1nc2cc(NC(=O)N3CCN(c4ccccc4)CC3)ccc2o1`, the activity change, negative = cytotoxicity is -4.28% (inactive).
Same read-out and setting: as for `O=C(Nc1cccnc1)c1cc2nc(-c3cccs3)cc(C(F)(F)F)n2n1`, the figure is -3.55% (inactive); as for `CC(=O)c1ccc(N2CCN(C(=O)c3cccnc3)CC2)cc1`, 0.559% (inactive).
Consider `COc1ccc(N2CCN(C(=O)c3ccc4c(c3)OCO4)CC2)cc1`, for which the activity change, negative = cytotoxicity is -3.29% (inactive).
Turning to `COc1ccc(NC(=O)N2CCN(c3ccccc3)CC2)cc1`, the activity change, negative = cytotoxicity was -3.72% (inactive).
`CC(=O)c1ccc(N2CCN(C(=O)c3ccc4c(c3)OCO4)CC2)cc1`: the activity change, negative = cytotoxicity was -12.8% (inactive).
The same measure, in the same setting: the value for `O=C(c1ccc2c(c1)OCO2)N1CCN(Cc2ccccc2)CC1` was 9.39% (inactive); that for `Cc1cccc(/C=C(\CCC(=O)O)c2nc3ccccc3s2)c1` was -7.62% (inactive); that for `Cc1nc2ccc(NC(=O)N3CCN(c4ccccc4)CC3)cc2s1` was 0.35% (inactive).
Still for that read-out and setting: the value for `O=C(Nc1ccc(F)cc1)N1CCN(c2ccccc2)CC1` was -4.84% (inactive); that for `CC(=O)c1ccc(N2CCN(Cc3ccc4c(c3)OCO4)CC2)cc1` was -4.27% (inactive).
Still for that read-out and setting: the value for `O=C(Nc1ccc2snnc2c1)N1CCN(c2ccccc2)CC1` was -13.4% (inactive); that for `COc1cccc(NC(=O)N2CCN(c3ccccc3)CC2)c1` was 8.71% (inactive); that for `CC(=O)c1ccc(N2CCN(C(=O)c3ccc(C)cc3)CC2)cc1` was -8.81% (inactive).
As to `O=C(Nc1cccnc1)c1cnn2c(C(F)(F)F)cc(-c3ccccc3)nc12`, the activity change, negative = cytotoxicity is -2.52% (inactive).
Still for that read-out and setting: the value for `O=C(Nc1ccccc1)N1CCN(c2ccccc2)CC1` was -0.224% (inactive).
Regarding `CC(=O)c1ccc(N2CCN(C(=O)c3cccc(Cl)c3)CC2)cc1`, the activity change, negative = cytotoxicity was 4.97% (inactive).
